{"source": "patent US3965105A", "about": "“Phenyl-lower-alkylamines” (Sterling Drug Inc., priority 1975, dated 1976)", "key": {"[1]": {"assay": "inhibition of carrageenin-induced foot edema test (carrageenin edema, CE)", "assay_type": "in vivo", "details": "oral, text: millimoles (μM)/kg.)", "procedure": "(§1) Anti-inflammatory activity was determined using (1) the inhibition of carrageenin-induced foot edema test essentially described by […] and (2) a modification of the inhibition of adjuvant-induced arthritis test described by Pierson, J. Chronic Diseases 16, 863 (1963) and Glenn et al., Am. J. Vet. Res. 26, 1180 (1965).\n(§2) The phenyl-lower-alkylamines of formula I of the invention have been tested in the carrageenin edema (CE) and adjuvant arthritis (AA) tests and found to have anti-inflammatory activity. Data so-obtained, stated in terms of percent inhibition at a dose expressed in terms of millimoles (μM)/kg.,are given below. All data were obtained on oral administration."}, "[2]": {"assay": "inhibition of adjuvant-induced arthritis test, modified (adjuvant arthritis, AA)", "assay_type": "in vivo", "details": "oral, text: millimoles (μM)/kg.)", "procedure": "as §1, §2"}}}
{"smiles": "CC(C)Cc1ccc(C(C)CN2CCCCC2CC2CCCCC2)cc1", "note": "(stereo not drawn) [Example 1, 2-cyclohexylmethyl-1-[2-(4-isobutylphenyl)propyl]piperidine]", "values": [{"measurement": "CE (% Inhib.)", "setting": "[1]; dose 0.08 (head: mmol/kg", "value": 0, "unit": "%"}, {"measurement": "CE (% Inhib.)", "setting": "[1]; dose 0.324 (head: mmol/kg", "value": 5, "unit": "%"}, {"measurement": "AA (% Inhib.)", "setting": "[2]; dose 0.324 (head: mmol/kg", "value": 75, "unit": "%"}]}
{"smiles": "CC(CN1CCCCC1CC1CCCCC1)c1cccc(Br)c1", "note": "(stereo not drawn) [Example 4, 2-cyclohexylmethyl-1-[2-(3-bromophenyl)propyl]piperidine]", "values": [{"measurement": "CE (% Inhib.)", "setting": "[1]; dose 0.005 (head: mmol/kg", "value": 7, "unit": "%"}, {"measurement": "CE (% Inhib.)", "setting": "[1]; dose 0.02 (head: mmol/kg", "value": 4, "unit": "%"}, {"measurement": "CE (% Inhib.)", "setting": "[1]; dose 0.08 (head: mmol/kg", "value": 0, "unit": "%"}]}
{"smiles": "CC(CN1CCCCC1CC1CCCCC1)c1ccccc1", "note": "(stereo not drawn) [Example 5, 2-cyclohexylmethyl-1-(2-phenylpropyl)piperidine]", "values": [{"measurement": "CE (% Inhib.)", "setting": "[1]; dose 0.005 (head: mmol/kg", "value": 0, "unit": "%"}, {"measurement": "CE (% Inhib.)", "setting": "[1]; dose 0.02 (head: mmol/kg", "value": 16, "unit": "%"}, {"measurement": "CE (% Inhib.)", "setting": "[1]; dose 0.08 (head: mmol/kg", "value": 13, "unit": "%"}]}
{"smiles": "CC(C)Cc1ccc(C(C)CN2C(C)CCCC2C)cc1", "note": "(stereo not drawn) [Example 3, 2,6-dimethyl-1-[2-(4-isobutylphenyl)propyl]piperidine]", "values": [{"measurement": "CE (% Inhib.)", "setting": "[1]; dose 0.08 (head: mmol/kg", "value": 0, "unit": "%"}, {"measurement": "CE (% Inhib.)", "setting": "[1]; dose 0.324 (head: mmol/kg", "value": 8, "unit": "%"}, {"measurement": "AA (% Inhib.)", "setting": "[2]; dose 0.324 (head: mmol/kg", "value": 55, "unit": "%"}]}
{"smiles": "CCN(CC)CCCC(C)NCC(C)c1ccc(CC(C)C)cc1", "note": "(stereo not drawn) [Example 2, N-[2-(4-isobutylphenyl)propyl]-N-[5-(N',N'-diethylamino)-2-pentyl]amine]", "values": [{"measurement": "CE (% Inhib.)", "setting": "[1]; dose 0.02 (head: mmol/kg", "value": 0, "unit": "%"}, {"measurement": "CE (% Inhib.)", "setting": "[1]; dose 0.08 (head: mmol/kg", "value": 17, "unit": "%"}, {"measurement": "CE (% Inhib.)", "setting": "[1]; dose 0.324 (head: mmol/kg", "value": 39, "unit": "%"}, {"measurement": "AA (% Inhib.)", "setting": "[2]; dose 0.01 (head: mmol/kg", "value": 32, "unit": "%"}, {"measurement": "AA (% Inhib.)", "setting": "[2]; dose 0.04 (head: mmol/kg", "value": 34, "unit": "%"}, {"measurement": "AA (% Inhib.)", "setting": "[2]; dose 0.16 (head: mmol/kg", "value": 63, "unit": "%"}]}
